One test concerns the target T1, Rtt109-Vps75 complex (Saccharomyces cerevisiae, UniProt Q07794).
T1 construct: using two full-length physiologically relevant protein complexes; made in house
T1 sequence (Q07794 1-436): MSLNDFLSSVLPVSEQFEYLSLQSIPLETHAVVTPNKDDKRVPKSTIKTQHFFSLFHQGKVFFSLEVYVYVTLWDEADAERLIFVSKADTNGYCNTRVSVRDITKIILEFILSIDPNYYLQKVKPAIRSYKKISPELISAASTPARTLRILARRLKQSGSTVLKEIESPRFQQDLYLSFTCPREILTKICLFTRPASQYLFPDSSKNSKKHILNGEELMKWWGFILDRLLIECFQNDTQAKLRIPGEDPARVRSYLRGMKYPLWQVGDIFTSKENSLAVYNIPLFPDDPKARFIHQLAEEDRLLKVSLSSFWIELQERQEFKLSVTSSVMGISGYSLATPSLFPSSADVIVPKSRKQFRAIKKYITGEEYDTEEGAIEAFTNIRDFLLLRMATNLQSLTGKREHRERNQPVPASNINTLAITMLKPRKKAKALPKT
T1 sequence (P53853 1-264 partner): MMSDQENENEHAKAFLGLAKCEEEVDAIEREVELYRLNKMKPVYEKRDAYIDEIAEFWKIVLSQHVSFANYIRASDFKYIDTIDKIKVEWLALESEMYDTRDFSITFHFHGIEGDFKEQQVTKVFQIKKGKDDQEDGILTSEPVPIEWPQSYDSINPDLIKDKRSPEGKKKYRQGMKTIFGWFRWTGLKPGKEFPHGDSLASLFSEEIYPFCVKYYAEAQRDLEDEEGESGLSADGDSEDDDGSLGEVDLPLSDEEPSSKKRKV
The experiment in a line: CPM-based fluorometric Rtt109-Vps75 HTS / dose-response assay. It is filed as biochemical, S. cerevisiae. How it is done:
(§1) Compounds selected for dose-response analyses were tested in duplicate at eight compound concentrations, ranging from 40 nM to 125 µM final compound concentrations. Plate controls, dispensing steps and general assay procedures were unchanged from the aforementioned HTS procedures. Slot blots were performed using standard techniques with a Bio-Rad Bio-Dot SF microfiltration apparatus. Membranes were imaged with a LI-COR Odyssey and analyzed using Image Studio (LI-COR Biosciences). For the slot blot experiments, the assay plates included an additional plate control consisting of the Rtt109-Vps75 and Asf1-dH3-H4 complexes and no acetyl-CoA. Dose-response and slot blot experiments were replicated at least three times by independent experiments.

Another test has as its system Rtt109. Set-up: method as in PMID 18568037. The settings on record: ref [11]; cited from earlier work.
Test [1] concerns the target T2, Rtt109-catalyzed histone acetylation (H3K56ac, H3K27ac, H3K9ac) (Saccharomyces cerevisiae, UniProt Q07794).
T2 construct: using two full-length physiologically relevant protein complexes; made in house
T2 sequence (Q07794 1-436): T1 sequence (Q07794 1-436)
T2 sequence (P53853 1-264 partner): T1 sequence (P53853 1-264 partner)
Briefly: Orthogonal antibody-based slot blot assay of histone acetylation. It is filed as biochemical, S. cerevisiae. As to conditions: reaction aliquots. How it is done: as §1
This method utilizes modification-specific antibodies to detect changes in the actual histone acetylation, rather than the CoA by-product. […] Equal protein content was verified by Ponceau S staining (Figure 5B).

The subject of the next test is PCAF. The settings on record: ref [69], [70]; cited from earlier work.
In a further test the test system is p300. As to conditions: ref [69], [70]; cited from earlier work.
In another test the test system is β-lactamase. As to conditions: 10 µM.

A word on the IC50: it is the midpoint of a concentration-inhibition curve.

Method for β-lactamase: Selected compounds were also de-risked for aggregation behavior using published procedures [55], except that the published assay buffer was again swapped for the HTS buffer. Rotterlin and lidocaine were used as a positive and negative compound controls, respectively [56]. Compounds were tested at 10 µM final concentrations in either the presence or absence of 0.01% Triton X-100.

Consider `O=C(O)C1=CC(=C(c2ccc(O)c(C(=O)O)c2)c2ccc(O)c(C(=O)O)c2)C=CC1=O` [ATA, aurintricarboxylic acid], for which, at Rtt109-Vps75 complex (10 µM final concentration), the “signal reduction in HTS compound control wells” value was 50%.

Take `CC(=O)N[C@@H](CCCCNC(=O)CSCCNC(=O)CCNC(=O)[C@H](O)C(C)(C)COP(=O)(O)OP(=O)(O)OC[C@H]1O[C@@H](n2cnc3c(N)ncnc32)[C@H](O)[C@@H]1OP(=O)(O)O)C(N)=O` [Lys-CoA]: in the test on Rtt109, the “activity versus Rtt109” value was “have not shown activity”.

Take `OC(Cn1cncn1)(Cn1cncn1)c1ccc(F)cc1F` [fluconazole]: in test [1], the “histone acetylation by slot blot” value is listed as “did not show any measureable decrease”. Also, the “activity against Rtt109-catalyzed histone acetylation in the CPM-based assay” value at Rtt109-Vps75 complex (dose-response, negative compound control) was “but not fluconazole, showed modest activity”.

For `C=C(C)[C@@H](CC=C(C)C)C[C@@]12C[C@@H](CC=C(C)C)C(C)(C)[C@@](CC=C(C)C)(C(=O)C(C(=O)c3ccc(O)c(O)c3)=C1O)C2=O` [garcinol], in test [1] (modification-specific antibody), the “H3K9ac by slot blot” value is “dose-dependent decreases”, the “H3K27ac by slot blot” value was “dose-dependent decreases” and the “H3K56ac by slot blot” value was “dose-dependent decreases”. The IC50 with PCAF is […]. Moreover, the IC50 in the test with p300 is 7 µM. Moreover, the “inhibition of β-lactamase activity, detergent present” value in the test with β-lactamase (0.01% Triton X-100) is reported as “no such inhibition was observed”. Besides, in the test with β-lactamase (absence of detergent), the “inhibition of β-lactamase activity, detergent-free” value is listed as “only modest inhibition”.

Source of the values: paper PMC3832525, “A Cell-Free Fluorometric High-Throughput Screen for Inhibitors of Rtt109-Catalyzed Histone Acetylation” (PLoS ONE, 2013).
